For 23 compounds, EC50 results are on record in patent US20250154152A1, “INHIBITORS OF NAEGLERIA FOWLERI” (Wisconsin Alumni Research Foundation, priority 2023, published 2025).

The subject of the test is N. fowleri strain Nf69 (ATCC 30215) trophozoites. Nature of the test: Determination of EC50 values against Naegleria fowleri (growth inhibition, CellTiter Glo, 48 h). The class given is cell-based. As to conditions: ATCC30215, N. fowleri Nf69 trophozoites, 48 h culture, 37° C., CellTiter Glo luminescence, read-out: EC50 uM against N. fowleri. As for the experimental part:
N. fowleri strain Nf69 (ATCC 30215) trophozoites were cultured axenically. Amoeba were seeded at […] in 100 μL of the indicated medium in white TC-treated 96-well plates (Thermo Scientific Nunc Microwell 136101). Cells were seeded into Nelson's Complete Media (NCM, 0.17% liver infusion broth (BD Difco, Franklin Lakes, NJ), 0.17% glucose, 0.012% sodium chloride, 0.0136% potassium phosphate monobasic, 0.0142% sodium phosphate dibasic, 0.0004% calcium chloride, 0.0002% magnesium sulfate, 10% heat-inactivated fetal bovine serum (FBS), 1% penicillin-streptomycin) at 37° C. in 96-well tissue culture plates. Vehicle or compound at concentrations initially ranging from 20 to 0.375 μM were added to cells, followed by culture for 48 h (37° C., 5% CO2). Plates were equilibrated to rt for 15 min and CellTiter Glo reagent was added followed by orbital shaking for 2 min. After an additional incubation (rt, 10 min), luminescence was scored on a BioTek Synergy H1 microplate reader. Luminescence values were used to calculate percent cell growth inhibition (based on controls) for each concentration of compound tested. Averages of triplicates were calculated and fit to dose-response curves for the determination of EC50 values, using Prism 9.0 (GraphPad Software, San Diego, CA). […] Other controls included media alone, cells and media, and vehicle and media. For very potent compounds, concentration of reagent in the dose-response assays were reduced to provide an appropriate range for EC50 value resolution.
Compounds of the present technology were tested for growth inhibition of N. fowleri per General Procedure 13, above.
Background: Cellular ATP, detected with luciferase, serves as a proxy for viable cell number.

For the compound `CN1CCC[C@@H]2c3nc4cc(Cl)ccc4c(=O)n3CC[C@H]21` (racemic) [trans-5k, (±)-(4aR,13bS)-11-chloro-4-methyl-1,2,3,4,4a,5,6,13b-octahydro-8H-[1,6]naphthyridino[5,6-b]quinazolin-8-one], the EC50 lay within 1 to 10 µM.
In the case of `CN1CCC[C@@H]2c3nc4cc(Br)ccc4c(=O)n3CC[C@H]21` (racemic) [trans-5l, (±)-(4aR,13bS)-11-bromo-4-methyl-1,2,3,4,4a,5,6,13b-octahydro-8H-[1,6]naphthyridino[5,6-b]quinazolin-8-one] it was 1 to 10 µM; in that of `CN1CCC[C@@H]2c3nc4cc(F)ccc4c(=O)n3CC[C@H]21` (racemic) [trans-5m, (±)-(4aR,13bS)-11-fluoro-4-methyl-1,2,3,4,4a,5,6,13b-octahydro-8H-[1,6]naphthyridino[5,6-b]quinazolin-8-one], over 10 µM; in that of `CN1CCC[C@@H]2c3nc4cc(C(F)(F)F)ccc4c(=O)n3CC[C@H]21` (racemic) [trans-5n, (±)-(4aR,13bS)-4-methyl-11-(trifluoromethyl)-1,2,3,4,4a,5,6,13b-octahydro-8H-[1,6]naphthyridino[5,6-b]quinazolin-8-one], 0.1 to 1 µM.
For `CN1CCC[C@@H]2c3nc4cnccc4c(=O)n3CC[C@H]21` (racemic) [trans-5p, (±)-(4aR,13bS)-4-methyl-1,2,3,4,4a,5,6,13b-octahydro-8H-pyrido[3′,4′:4,5]pyrimido[2,1-f][1,6]naphthyridin-8-one] the value was over 10 µM; for `CN1CCC[C@@H]2c3nc4cc(Cl)c(Cl)cc4c(=O)n3CC[C@H]21` (racemic) [trans-5q, (±)-(4aR,13bS)-10,11-dichloro-4-methyl-1,2,3,4,4a,5,6,13b-octahydro-8H-[1,6]naphthyridino[5,6-b]quinazolin-8-one], 0.1 to 1 µM.
On to `COc1cc2nc3n(c(=O)c2cc1OC)CC[C@@H]1[C@@H]3CCCN1C` (racemic) [trans-5r, (±)-(4aR,13bS)-10,11-dimethoxy-4-methyl-1,2,3,4,4a,5,6,13b-octahydro-8H-[1,6]naphthyridino[5,6-b]quinazolin-8-one], for which the EC50 is over 10 µM.
With `CN1CCC[C@@H]2c3nc4cc(Cl)c(C(F)(F)F)cc4c(=O)n3CC[C@H]21` (racemic) [trans-5s, (±)-(4aR,13bS)-11-chloro-4-methyl-10-(trifluoromethyl)-1,2,3,4,4a,5,6,13b-octahydro-8H-[1,6]naphthyridino[5,6-b]quinazolin-8-one], the EC50 lay in the range of 0.1 to 1 µM.
Regarding `COc1cc(Cl)cc2c(=O)n3c(nc12)[C@H]1CCCN(C)[C@@H]1CC3` (racemic) [trans-5t, (±)-(4aR,13bS)-10-chloro-12-methoxy-4-methyl-1,2,3,4,4a,5,6,13b-octahydro-8H-[1,6]naphthyridino[5,6-b]quinazolin-8-one], the EC50 is over 10 µM.
For `COc1cccc2c(=O)n3c(nc12)[C@H]1CCCN(C)[C@@H]1CC3` (racemic) [trans-5u, (±)-(4aR,13bS)-12-methoxy-4-methyl-1,2,3,4,4a,5,6,13b-octahydro-8H-[1,6]naphthyridino[5,6-b]quinazolin-8-one] the value was over 10 µM.
With `CN1CCO[C@@H]2c3nc4ccccc4c(=O)n3CC[C@H]21` (racemic) [trans-5v, (±)-(4aR,13bS)-4-methyl-3,4,4a,5,6,13b-hexahydro-[1,4]oxazino[2′,3′:3,4]pyrido[2,1-b]quinazolin-8(2H)-one], the EC50 is over 10 µM.
`CN1CCO[C@@H]2c3nc4ccc(Cl)cc4c(=O)n3CC[C@H]21` (racemic) [trans-5w, (±)-(4aR,13bS)-10-chloro-4-methyl-3,4,4a,5,6,13b-hexahydro-[1,4]oxazino[2′,3′:3,4]pyrido[2,1-b]quinazolin-8(2H)-one]: the EC50 is over 10 µM.
In the case of `CN1CCO[C@@H]2c3nc4ccc(C(F)(F)F)cc4c(=O)n3CC[C@H]21` (racemic) [trans-5x, (±)-(4aR,13bS)-4-methyl-10-(trifluoromethyl)-3,4,4a,5,6,13b-hexahydro-[1,4]oxazino[2′,3′:3,4]pyrido[2,1-b]quinazolin-8(2H)-one] it was over 10 µM; in that of `CCN1CCC[C@@H]2c3nc4ccccc4c(=O)n3CC[C@H]21` (racemic) [trans-5z, (±)-(4aR,13bS)-4-ethyl-1,2,3,4,4a,5,6,13b-octahydro-8H-[1,6]naphthyridino[5,6-b]quinazolin-8-one], over 10 µM.
For `O=c1c2cc(Cl)ccc2nc2n1CC[C@H]1NCCC[C@H]21` (racemic) [trans-6a, (±)-(4aR,13bS)-10-chloro-1,2,3,4,4a,5,6,13b-octahydro-8H-[1,6]naphthyridino[5,6-b]quinazolin-8-one] the value was 1 to 10 µM; for `O=c1c2cc(Cl)c(Cl)cc2nc2n1CC[C@H]1NCCC[C@H]21` (racemic) [trans-6b, (±)-(4aR,13bS)-10,11-dichloro-1,2,3,4,4a,5,6,13b-octahydro-8H-[1,6]naphthyridino[5,6-b]quinazolin-8-one], 1 to 10 µM; for `COc1cc2nc3n(c(=O)c2cc1Cl)CC[C@H]1NCCC[C@H]31` (racemic) [trans-6c, (±)-(4aR,13bS)-10-chloro-11-methoxy-1,2,3,4,4a,5,6,13b-octahydro-8H-[1,6]naphthyridino[5,6-b]quinazolin-8-one], 1 to 10 µM.
For the compound `CC(C)N1CCC[C@@H]2c3nc4cc(Cl)c(Cl)cc4c(=O)n3CC[C@H]21` (racemic) [trans-7a, (±)-(4aR,13bS)-10,11-dichloro-4-isopropyl-1,2,3,4,4a,5,6,13b-octahydro-8H-[1,6]naphthyridino[5,6-b]quinazolin-8-one], the EC50 fell in the range of 0.0001 to 0.1 µM.
In the case of `CC(C)NCCN1CCC[C@@H]2c3nc4cc(Cl)c(Cl)cc4c(=O)n3CC[C@H]21` (racemic) [trans-7aa, (±)-(4aR,13bS)-10,11-dichloro-4-(2-(isopropylamino)ethyl)-1,2,3,4,4a,5,6,13b-octahydro-8H-[1,6]naphthyridino[5,6-b]quinazolin-8-one], the concentration giving a half-maximal response (EC50) was 0.1 to 1 µM.
Turning to `O=c1c2cc(Cl)c(Cl)cc2nc2n1CC[C@@H]1[C@@H]2CCCN1CC1CCOCC1` (racemic) [trans-7b, (±)-(4aR,13bS)-10,11-dichloro-4-((tetrahydro-2H-pyran-4-yl)methyl)-1,2,3,4,4a,5,6,13b-octahydro-8H-[1,6]naphthyridino[5,6-b]quinazolin-8-one], the EC50 was 0.0001 to 0.1 µM.
For `O=c1c2cc(Cl)c(Cl)cc2nc2n1CC[C@@H]1[C@@H]2CCCN1Cc1cccnc1` (racemic) [trans-7bb, (±)-(4aR,13bS)-10,11-dichloro-4-(pyridin-3-ylmethyl)-1,2,3,4,4a,5,6,13b-octahydro-8H-[1,6]naphthyridino[5,6-b]quinazolin-8-one] the value was 0.0001 to 0.1 µM; for `CN(C)C(=O)CN1CCC[C@@H]2c3nc4cc(Cl)c(Cl)cc4c(=O)n3CC[C@H]21` (racemic) [trans-7c, (±)-2-((4aR,13bS)-10,11-dichloro-8-oxo-2,3,5,6,8,13b-hexahydro-1H-[1,6]naphthyridino[5,6-b]quinazolin-4(4aH)-yl)-N,N-dimethylacetamide], 0.1 to 1 µM; for `CC(=O)CN1CCC[C@@H]2c3nc4cc(Cl)c(Cl)cc4c(=O)n3CC[C@H]21` (racemic) [trans-7cc, (±)-(4aR,13bS)-10,11-dichloro-4-(2-oxopropyl)-1,2,3,4,4a,5,6,13b-octahydro-8H-[1,6]naphthyridino[5,6-b]quinazolin-8-one], 0.0001 to 0.1 µM.

What is called EC50 is the concentration needed to bring the measured effect to its halfway point.
